Experiments:
EpsI/Nla24 = molecular target: T1, EpsI/Nla24 (Myxococcus xanthus, UniProt Q1CVM8); assay: SPR (Biacore T200), steady-state affinity fit; format: binding; settings: labelled compound: biotinylated c-di-GMP immobilised on streptavidin chip, protein as analyte; paper states KD as that of c-di-GMP; 10 mM HEPES, 150 mM NaCl, 2 mM MgCl2, pH 6.8, 25°C
T1 construct: calculated 50 kDa; receiver, AAA+ and HTH domains

DmxB = molecular target: T2, DmxB (Myxococcus xanthus, UniProt Q1D603, R210A); assay: TLC of [α-32P]-GTP products (diguanylate cyclase assay); format: biochemical; settings: labelled compound; I-site mutant; 1 mM GTP, 10 μM protein, 10 mM MgCl2, 300 mM NaCl, pH 8.0, 30°C
T2 construct: gene MXAN_3735; full-length, DmxB-His6 from pET24b(+) (pDJS30), made in E. coli Rosetta 2(DE3), Ni-NTA; N-terminal receiver, C-terminal GGDEF
T2 sequence (Q1D603 entry or part of it R210A): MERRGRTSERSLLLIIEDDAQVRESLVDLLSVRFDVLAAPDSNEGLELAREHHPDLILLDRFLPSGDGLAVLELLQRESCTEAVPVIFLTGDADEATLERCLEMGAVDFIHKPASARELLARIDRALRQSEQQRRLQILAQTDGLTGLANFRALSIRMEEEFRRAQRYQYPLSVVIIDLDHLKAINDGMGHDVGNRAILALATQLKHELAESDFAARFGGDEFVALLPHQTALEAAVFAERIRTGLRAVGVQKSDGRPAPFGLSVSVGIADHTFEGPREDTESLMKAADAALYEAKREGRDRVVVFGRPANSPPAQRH

T1 sequence (Q1CVM8 entry or part of it): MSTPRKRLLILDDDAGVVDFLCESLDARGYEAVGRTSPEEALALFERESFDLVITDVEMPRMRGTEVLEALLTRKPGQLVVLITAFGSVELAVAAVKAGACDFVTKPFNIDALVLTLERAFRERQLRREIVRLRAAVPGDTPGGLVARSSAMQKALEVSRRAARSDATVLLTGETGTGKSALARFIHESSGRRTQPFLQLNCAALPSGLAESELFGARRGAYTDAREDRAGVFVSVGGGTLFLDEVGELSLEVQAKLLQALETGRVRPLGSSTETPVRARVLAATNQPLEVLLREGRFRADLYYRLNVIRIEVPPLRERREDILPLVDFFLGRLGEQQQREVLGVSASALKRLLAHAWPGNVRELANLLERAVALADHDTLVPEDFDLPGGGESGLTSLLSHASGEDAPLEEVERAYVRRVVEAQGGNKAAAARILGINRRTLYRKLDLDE

## biotinylated c-di-GMP
EpsI/Nla24
  Kd: 530 ± 60 nM

## Nc1nc2c(ncn2[C@@H]2O[C@H](COP(=O)(O)OP(=O)(O)OP(=O)(O)O)[C@@H](O)[C@H]2O)c(=O)[nH]1 [GTP]
DmxB
  TLC of [α-32P]-GTP products (diguanylate cyclase assay): the I-site mutant had slightly increased DGC activity in vitro in comparison to the WT

Source: publication PMC4877007, “A Minimal Threshold of c-di-GMP Is Essential for Fruiting Body Formation and Sporulation in Myxococcus xanthus” (PLoS Genetics, 2016)
